US8637511B2, “Aminopyrimidines useful as kinase inhibitors” (Vertex Pharmaceuticals Incorporated, priority 2005, dated 2014)
Where “and” joins values, the source holds several entries; their conditions need not be identical. Equal entries are not always repeated. Where two headings read alike, the source gives them in different places.

Key:
[1] = target: T1, JAK3 (Homo sapiens, UniProt P52333); experiment: biochemical
T1 sequence (P52333 1-1124): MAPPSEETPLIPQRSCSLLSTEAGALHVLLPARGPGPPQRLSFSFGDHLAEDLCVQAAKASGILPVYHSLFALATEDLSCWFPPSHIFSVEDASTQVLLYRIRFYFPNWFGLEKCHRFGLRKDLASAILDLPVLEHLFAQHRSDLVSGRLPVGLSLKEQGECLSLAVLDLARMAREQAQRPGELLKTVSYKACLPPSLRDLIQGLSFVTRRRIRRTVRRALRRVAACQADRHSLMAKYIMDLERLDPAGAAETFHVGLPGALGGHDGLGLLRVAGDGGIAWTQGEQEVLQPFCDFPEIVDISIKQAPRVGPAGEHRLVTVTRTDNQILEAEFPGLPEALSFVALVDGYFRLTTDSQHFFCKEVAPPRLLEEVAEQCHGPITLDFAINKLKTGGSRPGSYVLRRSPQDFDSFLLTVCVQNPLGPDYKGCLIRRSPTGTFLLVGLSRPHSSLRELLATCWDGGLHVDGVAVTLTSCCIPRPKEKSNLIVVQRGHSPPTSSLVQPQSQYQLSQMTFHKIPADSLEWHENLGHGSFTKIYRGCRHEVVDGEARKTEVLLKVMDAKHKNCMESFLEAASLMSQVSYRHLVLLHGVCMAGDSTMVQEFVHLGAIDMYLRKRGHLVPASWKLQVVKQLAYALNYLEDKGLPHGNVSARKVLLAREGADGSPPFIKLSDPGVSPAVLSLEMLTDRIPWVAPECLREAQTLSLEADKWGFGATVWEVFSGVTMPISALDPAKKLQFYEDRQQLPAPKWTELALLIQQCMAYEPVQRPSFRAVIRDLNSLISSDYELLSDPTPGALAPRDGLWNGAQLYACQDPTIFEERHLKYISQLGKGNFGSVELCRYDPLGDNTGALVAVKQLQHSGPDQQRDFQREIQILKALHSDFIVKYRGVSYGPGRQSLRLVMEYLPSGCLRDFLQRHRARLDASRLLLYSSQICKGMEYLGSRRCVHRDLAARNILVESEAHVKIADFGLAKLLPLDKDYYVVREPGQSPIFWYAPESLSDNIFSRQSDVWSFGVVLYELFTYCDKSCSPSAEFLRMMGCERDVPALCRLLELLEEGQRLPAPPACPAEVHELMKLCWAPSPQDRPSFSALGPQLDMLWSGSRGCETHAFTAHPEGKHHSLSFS
Experimental: Reactions were carried out in a kinase buffer containing 100 mM HEPES (pH 7.4), 1 mM DTT, 10 mM MgCl2, 25 mM NaCl, and 0.01% BSA. Substrate concentrations in the assay were 5 μM ATP (200 uCi/μmole ATP) and 1 μM poly(Glu)4Tyr. Reactions were carried out at 25° C. and 1 nM JAK3.
To each well of a 96 well polycarbonate plate was added 1.5 μl of a candidate JAK3 inhibitor along with 50 μl of kinase buffer containing 2 μM poly(Glu)4Tyr and 10 μM ATP. This was then mixed and 50 μl of kinase buffer containing 2 nM JAK3 enzyme was added to start the reaction. After 20 minutes at room temperature (25 C), the reaction was stopped with 50 μl of 20% trichloroacetic acid (TCA) that also contained 0.4 mM ATP. The entire contents of each well were then transferred to a 96 well glass fiber filter plate using a TomTek Cell Harvester. After washing, 60 μl of scintillation fluid was added and ^33P incorporation detected on a Perkin Elmer TopCount.

[2] = target: Aurora-1 (Aurora B) (Homo sapiens, UniProt Q96GD4); experiment: Aurora-1 (Aurora B) inhibition assay (radiometric); type: biochemical; conditions: read-out: Aurora B kinase Ki value
Chain of Aurora-1 (Aurora B) (Q96GD4 whole entry): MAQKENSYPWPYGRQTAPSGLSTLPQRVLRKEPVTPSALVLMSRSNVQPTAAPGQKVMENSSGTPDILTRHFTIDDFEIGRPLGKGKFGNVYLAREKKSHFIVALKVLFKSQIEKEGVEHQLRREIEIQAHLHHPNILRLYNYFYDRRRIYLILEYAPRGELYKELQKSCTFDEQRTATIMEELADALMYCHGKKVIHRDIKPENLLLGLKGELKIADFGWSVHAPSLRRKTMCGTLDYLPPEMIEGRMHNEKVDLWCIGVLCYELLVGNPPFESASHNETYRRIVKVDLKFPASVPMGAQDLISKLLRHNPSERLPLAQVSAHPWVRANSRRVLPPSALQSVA
Experimental: An assay buffer solution was prepared which consisted of 25 mM HEPES (pH 7.5), 10 mM MgCl2, 0.1% BSA and 10% glycerol. […] To 22 μL of the Aurora-B solution, in a 96-well plate, was added 2 μl of a compound stock solution in DMSO and the mixture allowed to equilibrate for 10 minutes at 25° C. The enzyme reaction was initiated by the addition of 16 μl stock [γ-^33P]-ATP solution (˜20 nCi/μL) prepared in assay buffer, to a final assay concentration of 800 μM. The reaction was stopped after 3 hours by the addition of 16 μL 500 mM phosphoric acid and the levels of ^33P incorporation into the peptide substrate were determined by the following method.
A phosphocellulose 96-well plate (Millipore, Cat no. MAPHNOB50) was pre-treated with 100 μL of a 100 mM phosphoric acid prior to the addition of the enzyme reaction mixture (40 μL). The solution was left to soak on to the phosphocellulose membrane for 30 minutes and the plate subsequently washed four times with 200 μL of a 100 mM phosphoric acid. […] Levels of non-enzyme catalyzed background radioactivity were determined by adding 16 μL of the 500 mM phosphoric acid to control wells, containing all assay components (which acts to denature the enzyme), prior to the addition of the [γ-^33P]-ATP solution. Levels of enzyme catalyzed. ^33P incorporation were calculated by subtracting mean background counts from those measured at each inhibitor concentration. […] Ki values were calculated from initial rate data by non-linear regression using the Prism software package (Prism 3.0, Graphpad Software, San Diego, Calif.).

[3] = system: Colo205 cells; experiment: Analysis of cell proliferation and viability; type: cell-based; conditions: Homo sapiens, read-out: IC50 value
Experimental: Colo205 cells were seeded in 96 well plates and serially diluted compound was added to the wells in duplicate. Control groups included untreated cells, the compound diluent (0.1% DMSO alone) and culture medium without cells.
To measure proliferation, 3 h prior to the end of the experiment 0.5 μCi of 3H thymidine was added to each well. Cells were then harvested and the incorporated radioactivity counted on a Wallac microplate beta-counter. Cell viability was assessed using Promega CellTiter 96AQ to measure MTS conversion. Dose response curves were calculated using either Prism 3.0 (GraphPad) or SoftMax Pro 4.3.1 LS (Molecular Devices) software.

[4] = target: T2, Aurora-2 (Aurora A) (Homo sapiens, UniProt O14965); experiment: Aurora-2 (Aurora A) inhibition assay, coupled enzyme; type: biochemical
T2 sequence (O14965 1-403): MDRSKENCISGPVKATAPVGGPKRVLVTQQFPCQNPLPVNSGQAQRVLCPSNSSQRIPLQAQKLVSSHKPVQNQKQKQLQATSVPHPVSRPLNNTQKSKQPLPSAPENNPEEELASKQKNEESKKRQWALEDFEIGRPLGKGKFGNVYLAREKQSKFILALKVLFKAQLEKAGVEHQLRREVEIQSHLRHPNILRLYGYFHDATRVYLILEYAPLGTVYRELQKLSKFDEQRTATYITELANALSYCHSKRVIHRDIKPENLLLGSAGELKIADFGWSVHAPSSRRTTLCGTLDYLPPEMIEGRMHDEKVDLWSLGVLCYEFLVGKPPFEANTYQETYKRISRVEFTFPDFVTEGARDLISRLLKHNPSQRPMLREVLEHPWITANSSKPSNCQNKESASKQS
Experimental: Assays were carried out in a mixture of 100 mM Hepes (pH7.5), 10 mM MgCl2, 1 mM DTT, 25 mM NaCl, 2.5 mM phosphoenolpyruvate, 300 μM NADH, 30 μg/ml pyruvate kinase and 10 μg/ml lactate dehydrogenase. […] Assays were carried out at 30° C. and in the presence of 40 nM Aurora-2.
The plate was preincubated for 10 minutes at 30° C. and the reaction initiated by addition of 10 μl of Aurora-2. Initial reaction rates were determined with a Molecular Devices SpectraMax Plus plate reader over a 10 minute time course. IC50 and Ki data were calculated from non-linear regression analysis using the Prism software package (GraphPad Prism version 3.0cx for Macintosh, GraphPad Software, San Diego Calif., USA).

[5] = COLO 205, Colo205 cells, incubated for 96 hours
[6] = COLO 205, Colo205 cells, incubated for 72 hours
[7] = read-out: Aurora A kinase Ki value

SMILES	Ki [1]	Ki [2]	IC50 [3, 5]	IC50 [3, 6]	Ki [4, 7]	other results
Cc1cc(Nc2cc(N3CCC3)nc(Sc3ccc(C(=O)Nc4ccc(Cl)cc4)cc3)n2)n[nH]1 [Compound 21]	≤ 10 nM	50 to 2000 nM	> 1000 nM			Ki [4]: 5 to 200 nM
Cc1cc(Nc2cc(N3CC(O)(C4CC4)C3)nc(Sc3ccc(NC(=O)C4CCCC4)cc3)n2)[nH]n1 [Compound 104]	10 to 500 nM		≤ 50 nM			
O=C(Nc1ccc(Sc2nc(Nc3cc(C4CC4)[nH]n3)cc(N3CC(O)(C4CC4)C3)n2)cc1)C1CC1 [Compound 105]	≤ 10 nM		≤ 50 nM			
Cc1cc(Nc2cc(N3CC(F)(C4CC4)C3)nc(Sc3ccc(NC(=O)CC(F)(F)F)cc3)n2)[nH]n1 [Compound 135]	≤ 10 nM					IC50 ([3]; COLO 205, 72 h): ≤ 30 nM; IC50 ([3]; COLO 205, 96 h): ≤ 50 nM
Cc1cc(Nc2cc(N3CC(F)(C4CC4)C3)nc(Sc3ccc4c(c3)CN(CC(F)(F)F)C4=O)n2)[nH]n1 [Compound 179]		≤ 10 nM		30 to 200 nM	≤ 1 nM	Ki ([1]; read-out: JAK3 Ki value): 10 to 500 nM
Cc1cc(Nc2cc(N3CC(F)(C4CC4)C3)nc(Sc3ccc(NC(=O)CC(F)(F)F)nc3)n2)[nH]n1 [Compound 211]	≤ 10 nM					IC50 ([3]; COLO 205, 72 h): ≤ 30 nM
CCC(=O)Nc1ccc(Sc2nc(Nc3cc(C)n[nH]3)cc(N3CC(O)(C4CC4)C3)n2)cc1 [Compound 85]	10 to 500 nM		≤ 50 nM	≤ 30 nM		
Cc1cc(Nc2cc(N3CCC3)nc(Sc3ccc(NC(=O)c4ccc(Oc5ccccc5)cc4Cl)cc3)n2)[nH]n1 [Compound 87]	500 to 2000 nM	≤ 10 nM		30 to 200 nM	≤ 1 nM	
Cc1cc(Nc2cc(N3CC(O)(C4CC4)C3)nc(Sc3ccc(NC(=O)C4CC4)cc3F)n2)[nH]n1 [Compound 110]	≤ 10 nM		≤ 50 nM			
Cc1cc(Nc2cc(N3CC(O)(C4CC4)C3)nc(Sc3ccc(NC(=O)C4CC4)cc3)n2)n[nH]1 [Compound 103]	10 to 500 nM					IC50 ([3]; COLO 205, 72 h): 30 to 200 nM; IC50 ([3]; COLO 205, 96 h): ≤ 50 nM
Cc1cc(Nc2cc(N3CC(F)(C4CC4)C3)nc(Sc3ccc(NC(=O)CC4CC4)cc3)n2)[nH]n1 [Compound 171]	500 to 2000 nM			30 to 200 nM		
CCC(=O)Nc1ccc(Sc2nc(Nc3cc(C4CC4)[nH]n3)cc(N3CC(O)(C4CC4)C3)n2)cc1 [Compound 102]	≤ 10 nM					IC50 ([3]; COLO 205, 96 h): ≤ 50 nM
CCC(=O)Nc1ccc(Sc2nc(Nc3cc(C)n[nH]3)cc(N3CC(O)(C(C)CC)C3)n2)cc1 (stereo not drawn) [Compound 100]	10 to 500 nM		≤ 50 nM			
CCC(=O)Nc1ccc(Sc2nc(Nc3cc(C)n[nH]3)cc(N3CC(O)(C4CCCC4)C3)n2)cc1 [Compound 97]	10 to 500 nM					IC50 ([3]; COLO 205, 72 h): ≤ 30 nM; IC50 ([3]; COLO 205, 96 h): > 1000 nM
Cc1cc(Nc2cc(N3CC(O)(C4CC4)C3)nc(Sc3ccc(NC(=O)C4CC4(F)F)cc3)n2)[nH]n1 (stereo not drawn) [Compound 113]	≤ 10 nM			≤ 30 nM		
Cc1cc(Nc2cc(N3CCC3)nc(Sc3ccc(NC(=O)c4cccc(CN(C)C)c4)cc3)n2)[nH]n1 [Compound 138]	500 to 2000 nM	50 to 2000 nM	50 to 1000 nM			
CCC(=O)Nc1ccc(Sc2nc(Nc3cc(C)n[nH]3)cc(N3CC(O)(C(C)C)C3)n2)cc1 [Compound 99]	≤ 10 nM		≤ 50 nM			
Cc1cc(Nc2cc(N3CC(F)(C4CC4)C3)nc(Sc3ccc(NC(=O)C4CC4(F)F)cc3)n2)[nH]n1 (stereo not drawn) [Compound 194]	10 to 500 nM			≤ 30 nM		
Cc1cc(Nc2cc(N3CC(F)(C4CC4)C3)nc(Sc3ccc(NC(=O)C4CC4)cc3)n2)n[nH]1 [Compound 128]	10 to 500 nM					IC50 ([3]; COLO 205, 72 h): 30 to 200 nM; IC50 ([3]; COLO 205, 96 h): ≤ 50 nM
Cc1cc(Nc2cc(N3CC(O)(C4CC4)C3)nc(Oc3ccc4nc(C)sc4c3)n2)[nH]n1 [Compound 180]	≤ 10 nM	10 to 50 nM		30 to 200 nM	≤ 1 nM	
Cc1cc(Nc2cc(N3CC(F)(C4CC4)C3)nc(Sc3ccc(NC(=O)C4CC4)cc3F)n2)n[nH]1 [Compound 170]	10 to 500 nM			≤ 30 nM		
CCC(Nc1ccc(Sc2nc(Nc3cc(C)n[nH]3)cc(N3CC(O)(C4CC4)C3)n2)cc1)C(F)(F)F (stereo not drawn) [Compound 136]		50 to 2000 nM		> 200 nM	≤ 1 nM	
CCC1(F)CN(c2cc(Nc3cc(C)n[nH]3)nc(Sc3ccc(NC(=O)CC(F)(F)F)cc3)n2)C1 [Compound 196]		≤ 10 nM		≤ 30 nM	≤ 1 nM	
CCC(=O)Nc1ccc(Sc2nc(Nc3cc(C)n[nH]3)cc(N3CC(N4CCC4)C3)n2)cc1 [Compound 70]		50 to 2000 nM	≤ 50 nM		1 to 5 nM	
Cc1cc(Nc2cc(N3CC(C)(C#N)C3)nc(Sc3ccc(NC(=O)c4ccccc4C(F)(F)F)cc3)n2)[nH]n1 [Compound 122]		≤ 10 nM		30 to 200 nM	≤ 1 nM	
Cc1cc(Nc2nc(Sc3ccc(NC(=O)c4ccccc4Cl)cc3)nc(N3CCC3)c2F)[nH]n1 [Compound 192]	500 to 2000 nM	10 to 50 nM		> 200 nM	1 to 5 nM	
Cc1cc(Nc2cc(N3CC(O)(C4CC4)C3)nc(Sc3ccc(N4CCCC4=O)cc3)n2)n[nH]1 [Compound 133]		10 to 50 nM and < 25 nM		≤ 30 nM	≤ 1 nM	
Cc1cc(Nc2cc(N3CC4(CCCO4)C3)nc(Sc3ccc(NC(=O)C4CC4)cc3)n2)[nH]n1 [Compound 123]		≤ 10 nM		30 to 200 nM	1 to 5 nM	
Cc1cc(Nc2cc(N3CCC3)nc(Sc3ccc(C(=O)NC4CC4)cc3)n2)n[nH]1 [Compound 18]		10 to 50 nM and < 25 nM	50 to 1000 nM			Ki [4]: 5 to 200 nM
